Key:
[1] = system: sugar beet somatic embryos; assay: Germination of primary somatic embryos on MS medium containing cytokinin; assay type: cell-based, Beta vulgaris
Description: The embryos germinated quickly when transferred to fresh medium either supplemented with phytohormones or not. […] These embedded tissues were manually isolated, separated and transferred into liquid medium (MS medium+BAP 0.2 mg/L). The cultures were maintained at constant agitation (100 rpm) in the dark with biweekly changes of the medium. The white embryogenic tissue masses expanded in two weeks and snow-white fresh outgrowths formed on the surface of older tissues (FIG. 2B). Clumps of white embryogenic tissue masses were divided and transferred to fresh medium for further proliferation. A couple of such passages was enough to generate a large number of white clumps. Part of these tissues was used for the optimization of culture medium.

[2] = system: sugar beet seedling tissues (hypocotyls, cotyledons); assay: Callus induction from sugar beet seedling explants on MS medium with cytokinin; assay type: cell-based, Beta vulgaris
Description: Seeds from three sugar beet lines ACH199 (triploid), ACH31 (triploid) and ACH203 (diploid) were obtained from Crystal and Maribo Beet Seed, Moorehead, Minn. USA. To remove seed covers, Beta vulgaris seeds were soaked in the tap water overnight and then washed under water flow. Seeds were sterilized by sequential treatment with 70% (v/v) ethanol (1 min.), 0.1% (w/v) mercuric chloride (10 min.) and 10% (v/v) household laundry bleach (20 min.) followed by four washes with sterile distilled water. Seeds were then dried on sterile filter paper. All steps were performed in a laminar flow hood.
A series of media which included additional supplements were used for callus induction, embryo proliferation and shoot formation. Phytohormones (BAP, TDZ, NAA, IAA, 2,4-D) were added to the media before autoclaving (120° C. for 20 min.). The basal medium for callus induction and embryogenesis is MS medium comprising MS basal salts, 3% sucrose, 100 mg/L myo-inositol, 0.5 mg/L nicotinic acid, 0.5 mg/L pyridoxine-HCl, 1 mg/L thiamine-HCl and 0.8% (w/v) Difco agar. The basal medium for proliferation of repetitive embryos is MSE (MS basal salts, 100 mg/L myo-inositol, 0.5 mg/L nicotinic acid, 0.5 mg/L pyridoxine-HCl, 1 mg/L thiamine-HCl).
Petri dishes (100 mm×25 mm) containing 25 mL of medium were used for all experiments. Seeds were placed on MS medium, containing either BAP 2 mg/L or TDZ 1 mg/L; plates were sealed and placed in the dark place at 21° C. Cotyledons and hypocotyls (FIG. 1A) were excised from two-week-old seedlings, cut into several pieces, incised and placed on callus induction medium (MS medium supplemented with either 2 mg/L of BAP or 1 mg/l of TDZ). Plates were incubated in the dark at 21° C. Four weeks later, when explants were necrotic and dark brown, colonies of white friable callus appeared on the explant surface (FIG. 1B). Most of the callus formed on hypocotyls. Only a few colonies were found on cotyledons.

[3] = system: embryogenic tissue masses of sugar beet; assay: Repetitive embryogenic culture: optimization of proliferation medium; assay type: cell-based, Beta vulgaris; settings: for Effect of media on repetitive embryogenic culture (description) / white embryos, share of tissues / white embryos or white clumps, share of tissues: sucrose 6%, pH 5.7
Description: These embedded tissues were manually isolated, separated and transferred into liquid medium (MS medium+BAP 0.2 mg/L). The cultures were maintained at constant agitation (100 rpm) in the dark with biweekly changes of the medium. […] Clumps of white embryogenic tissue masses were divided and transferred to fresh medium for further proliferation. […] Part of these tissues was used for the optimization of culture medium.
The optimization of proliferation medium was conducted through several stages. Each stage lasted for two weeks.

[4] = system: friable callus of sugar beet; assay: Shoot/plant regeneration from friable callus; assay type: cell-based, Beta vulgaris
Description: (§1) For regeneration of embryos, friable callus was transferred to callus regeneration medium (MS medium supplemented with either 1 mg/L of BAP or 1 mg/L of TDZ). The cultures were incubated at 25° C. under a photoperiod of 16 hours of light of cool, white light at an intensity of 30 μmol m^−2s^−1 followed by a 8 hours of darkness. Callus began to grow vigorously, and by the end of the second week, it was possible to distinguish several callus types as well as small embryos (FIG. 1C). Since every seedling was treated as a separate line, quantitative analysis can be applied to the results of the experiments.
All explants of one type from the same line (i.e. only hypocotyls) were able to produce callus, if any did. At the same time, there were only a few cases where callus formed from both cotyledons and hypocotyls of the same seedling (twice in ACH31 and four times in ACH203).

[5] = system: friable callus of sugar beet; assay: Somatic embryogenesis from friable callus; assay type: cell-based, Beta vulgaris; settings: callus of ACH199 on MS+BAP at 1 mg/L
Description: as §1
After having subcultured callus tissues on regeneration medium, friable callus grew quite fast, expanded vigorously and was almost totally necrotic after a month. At this moment a few white embryogenic structures at different stages of development became visible (FIG. 1D); however, only callus of ACH199 growing on MS+BAP at 1 mg/L produced such structures. The frequency of embryogenesis was very low. Seven separate embryos were found in two out of 40 independent callus lines.

callus = settings: Nielson et al. (1995), Roussy et al. (1996); cited from earlier work
[6] = system: secondary somatic embryos of sugar beet; assay: Regeneration of secondary somatic embryos, adventitious shoot formation; assay type: cell-based, Beta vulgaris
Source text: Somatic embryos produced as described in Example 3 started to germinate as soon as they were transferred to a medium comprising MS basal salts, 3% sucrose and either BAP or TDZ under light. Regeneration began with green or red coloration of an embryo accompanied by formation of primary leaves and roots (FIG. 2C). Since the regeneration medium contained cytokinins, the primary roots were reduced while the shoots developed (FIG. 2D).
To select the best medium for embryo germination, a series of concentrations of BAP and TDZ was tested. The phenotypic effect of applied phytohormones was estimated after three weeks (FIG. 3).

[7] = Cultivar ACH31, Cotyledons, MS + BAP 2 mg/L or TDZ 1 mg/L
[8] = Cultivar ACH31, Hypocotyls, MS + BAP 2 mg/L or TDZ 1 mg/L
[9] = Cultivar ACH31, Hypocotyls, MS + BAP 2 mg/L or TDZ 1 mg/L, dark 21° C.
[10] = Cultivar ACH203, Cotyledons, MS + BAP 2 mg/L or TDZ 1 mg/L
[11] = Cultivar ACH203, Hypocotyls, MS + BAP 2 mg/L or TDZ 1 mg/L
[12] = II. MSE, glutamine 2 mg/L, phytohormone 0.1 mg/L
[13] = IV. MSE, glycine 2 mg/L, phytohormone 0.05 mg/L
[14] = IV. MSE, glycine 2 mg/L, phytohormone 0.1 mg/L
[15] = IV. MSE, glycine 2 mg/L, phytohormone 1 mg/L
[16] = Cultivar ACH31, Hypocotyls, regeneration medium MS + 1 mg/L BAP or TDZ

| SMILES | phenotype of embryos transferred to MS medium containing BAP or TDZ [1] | %A: number of lines producing callus/total number of lines × 100 ([2]; Cultivar ACH31, Cotyledons) | # of lines produced callus [2, 7] | %A: number of lines producing callus/total number of lines × 100 [2, 8] | # of lines produced callus [2, 9] | %A: number of lines producing callus/total number of lines × 100 ([2]; Cultivar ACH203, Cotyledons) | # of lines produced callus [2, 10] | %A: number of lines producing callus/total number of lines × 100 ([2]; Cultivar ACH203, Hypocotyls) | # of lines produced callus [2, 11] | Effect of media on repetitive embryogenic culture (description) [3, 13] | white embryos or white clumps, share of tissues [3, 13] | Effect of media on repetitive embryogenic culture (description) [3, 14] | white embryos or white clumps, share of tissues [3, 14] | Effect of media on repetitive embryogenic culture (description) [3, 15] | # of lines produced shoots ([4]; Cultivar ACH31, Cotyledons) | %B: number of lines producing callus and regenerating/total number of lines × 100 ([4]; Cultivar ACH31, Cotyledons) | %B: number of lines producing callus and regenerating/total number of lines × 100 ([4]; Cultivar ACH31, Hypocotyls) | # of lines produced shoots [4, 16] | # of lines produced shoots ([4]; Cultivar ACH203, Cotyledons) | %B: number of lines producing callus and regenerating/total number of lines × 100 ([4]; Cultivar ACH203, Cotyledons) | other results |
| --- | --- | --- | --- | --- | --- | --- | --- | --- | --- | --- | --- | --- | --- | --- | --- | --- | --- | --- | --- | --- | --- |
| c1ccc(CNc2ncnc3nc[nH]c23)cc1 [BAP, 6-benzylaminopurine] | formed multiple shoots but also retained white embryogenic tissues | 1% | 3 | 20% | 43 | 5% | 11 | 18% | 42 | Light yellow tissues | 25% | Light yellow tissues | 25% | Vigorously growing, vitrified tissues | 0 | 0% | 1% | 1 | 2 | 0.9% | %A: number of lines producing callus/total number of lines × 100 ([2]; Cultivar ACH199, Cotyledons): 2%; # of lines produced callus ([2]; Cultivar ACH199, Cotyledons, MS + BAP 2 mg/L): 4; %A: number of lines producing callus/total number of lines × 100 ([2]; Cultivar ACH199, Hypocotyls): 15%; # of lines produced callus ([2]; Cultivar ACH199, Hypocotyls, MS + BAP 2 mg/L): 36; Effect of media on repetitive embryogenic culture (description) [3, 12]: Most tissues are red or dark yellow; white embryos, share of tissues [3, 12]: 10%; Effect of media on repetitive embryogenic culture (description) ([3]; IV. MSE, glycine 2 mg/L, phytohormone 0.01 mg/L): Necrotic tissue with some white embryos; growth is stunted; white embryos, share of tissues [3, 15]: 10%; # of lines produced shoots ([4]; Cultivar ACH199, Cotyledons): 1; %B: number of lines producing callus and regenerating/total number of lines × 100 ([4]; Cultivar ACH199, Cotyledons): 0.5%; # of lines produced shoots ([4]; Cultivar ACH199, Hypocotyls): 1; %B: number of lines producing callus and regenerating/total number of lines × 100 ([4]; Cultivar ACH199, Hypocotyls): 0.5%; # of lines produced shoots ([4]; Cultivar ACH203, Hypocotyls): 11; %B: number of lines producing callus and regenerating/total number of lines × 100 ([4]; Cultivar ACH203, Hypocotyls): 5%; frequency of embryogenesis [5]: very low; independent callus lines in which embryos were found [5]: two out of 40; separate embryos found ([5]; after a month): Seven |
| O=C(Nc1ccccc1)Nc1cnns1 [TDZ, thidiazuron] | formed multiple shoots but also retained white embryogenic tissues | 0% | 0 | 45% | 50 | 0% | 0 | 43% | 100 | Vigorously expanded dark red culture | 20% | Vigorously expanded dark red culture | 20% | Vigorously expanded dark red culture, no white embryos | 0 | 0% | 9% | 10 | 0 | 0% | callus-inducing effectiveness (callus): more effective callus-inducing agent than BAP; production of friable callus and shoots, and plants therefrom: callus induction medium comprising TDZ versus BAP [2]: superior; increase of friable callus formation from hypocotyls, TDZ compared with BAP ([2]; ACH31): two-fold; callus initiation from cotyledons, TDZ compared with BAP ([2]; cotyledons): no TDZ-related improvements; callus formation and plant regeneration, TDZ compared with BAP ([2]; hypocotyls of cultivar ACH203): provided similar results; rate of callus formation from hypocotyls and plant regeneration from such callus, TDZ compared with BAP ([2]; two out of three cultivars tested): dramatically increased; adventitious shoot formation ([6]; TDZ at 0.03 mg/L, concentrations tested 0.03, 0.1, 0.3, 1 and 3 mg/l, after three weeks): most effective; inducing the formation of adventitious shoots on Beta vulgaris embryos ([6]; compared with BAP): superior to BAP; regeneration, particularly shoot development on Beta vulgaris embryos ([6]; compared with BAP): superior to BAP; vitrification of tissues ([6]; concentrations higher than 0.03 mg/L): caused vitrification of tissues; vitrification of tissues and adventitious shoots ([6]; low concentrations): did not cause vitrification of tissues while producing more adventitious shoots; necrosis [3]: did not cause necrosis; tissue proliferation and anthocyanin production [3]: very quick proliferation of tissue and intensified production of anthocyanins; effect on embryogenic tissues during medium optimization ([3]; indicated by vigorous growth, red coloration, absence of embryogenic tissue masses): induced the regeneration of embryos; increase of plant regeneration from these calli, TDZ compared with BAP ([4]; ACH31, hypocotyl callus): nine-fold; # of lines produced shoots ([4]; Cultivar ACH203, Hypocotyls): 40; %B: number of lines producing callus and regenerating/total number of lines × 100 ([4]; Cultivar ACH203, Hypocotyls): 17% |
